In patent US10633389B2, “CARM1 inhibitors and uses thereof” (Epizyme, Inc., priority 2013, dated 2020):

Tested on: asymmetric di-methyl PABP1 in RKO cells
Experiment: RKO methylation assay, In Cell Western (ICW) for asymmetric di-methyl PABP1
Assay type: cell-based
Conditions: Homo sapiens, RKO, Cellular potencies, ICW PABP1me2a
Method in brief: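 In-cell Western on fixed RKO cells after 48 h compound exposure: anti-asymmetric di-methyl PABP1 signal at 800 nm over DRAQ5 DNA signal at 700 nm. Percent inhibition set between DMSO wells and wells with 20 μM reference compound; IC50 curves fitted in triplicate.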

Structure (SMILES)	IC50 [µM]
CNCC(O)COc1cccc(-c2nc(C(=O)NC3CCN(C)CC3)cc(-c3c(C)noc3C)n2)c1 (stereo not shown) [Example 160-1a]	10 to 20
CNC[C@@H](O)COc1ccc(Cl)c(-c2nc(-c3c(C)noc3C)c(C)c(N3CC(CO)(CO)C3)n2)c1 [Example 163-3]	5 to 10
CNCC(O)COc1cccc(-c2nc(-c3c(C)noc3C)cc(N3CCN(CC(F)F)[C@H](C)C3)n2)c1 (stereo partly shown) [Example 174-1a]	< 5
CNC[C@@H](O)COc1ccc(Cl)c(-c2nc(-c3c(C)noc3C)c(C)c(N3CCc4ccncc43)n2)c1 [Example 174-3]	< 5
CNCC(O)COc1cccc(-c2nc(-c3c(C)noc3C)cc(N3CCN(C)[C@H](C)C3)n2)c1 (stereo partly shown) [Example 175-1a]	5 to 10
CNC[C@@H](O)COc1ccc(Cl)c(-c2nc(-c3c(C)noc3C)c(C)c(N3CC4(CCN(C(=O)OC)C4)C3)n2)c1 [Example 175-3]	< 5
CNCC(O)COc1cccc(-c2nc(-c3c(C)noc3C)c(C)c(N3CCO[C@@H](CN(C)C(=O)N(C)C)C3)n2)c1 (stereo partly shown) [Example 176-1a]	< 5
CNC[C@@H](O)COc1ccc(Cl)c(-c2nc(-c3c(C)noc3C)c(C)c(N3CC4(CCN(C5CC5)C4)C3)n2)c1 [Example 176-3]	< 5
CNCC(O)COc1cccc(-c2nc(-c3c(C)noc3C)c(C)c(N3CCC[C@@H](NC)C3)n2)c1 (stereo partly shown) [Example 177-1a]	5 to 10
CNC[C@@H](O)COc1ccc(Cl)c(-c2nc(-c3c(C)noc3C)c(C)c(N3CCC4(CN(C(=O)OC)C4)C3)n2)c1 [Example 177-3]	< 5
CC[C@H]1CN(c2nc(-c3cccc(OCC(O)CNC)c3)nc(-c3c(C)noc3C)c2C)CCN1C1CC1 (stereo partly shown) [Example 178-1a]	10 to 20
CNC[C@@H](O)COc1ccc(Cl)c(-c2nc(-c3c(C)noc3C)c(C)c(N3CCC4(C3)CN(C3CC3)C4)n2)c1 [Example 178-3]	< 5
CNCC(O)COc1cccc(-c2nc(-c3c(C)noc3C)c(C)c(N3CCC4(CC3)CN(S(C)(=O)=O)C4)n2)c1 (stereo not shown) [Example 179-1a]	< 5
CNC[C@@H](O)COc1ccc(Cl)c(-c2nc(N[C@@H]3CO[C@H](C)C3)c(C)c(-c3c(C)noc3C)n2)c1 [Example 179-3]	< 5
CNC[C@@H](O)COc1ccc(Cl)c(-c2nc(N[C@@H]3CO[C@H](C)C3)c(Cl)c(-c3c(C)noc3C)n2)c1 [Example 180-3]	< 5
CNCC(O)COc1cccc(-c2nc(OC3CCOCC3)c(C)c(-c3c(C)noc3C)n2)c1 (stereo not shown) [Example 181-1a]	< 5
CNC[C@@H](O)COc1ccc(Cl)c(-c2nc(N[C@@H]3CO[C@@H](C)C3)c(Cl)c(-c3c(C)noc3C)n2)c1 [Example 181-3]	< 5
CNCC(O)COc1cccc(-c2nc(OCC3CCOCC3)c(C)c(-c3c(C)noc3C)n2)c1 (stereo not shown) [Example 182-1a]	< 5
CNC[C@@H](O)COc1ccc(Cl)c(-c2nc(N[C@@H]3C[C@@H](C)O[C@@H](C)C3)c(C)c(-c3c(C)noc3C)n2)c1 [Example 182-3]	< 5
CNC[C@@H](O)COc1cccc(-c2nc(NCC3CCOCC3)c(C)c(-c3c(C)noc3C)n2)c1 [Example 183-1a]	< 5

Structure (SMILES)	IC50 [µM]
CNC[C@@H](O)COc1ccc(Cl)c(-c2nc(N[C@@H]3C[C@@H](C)O[C@@H](C)C3)c(Cl)c(-c3c(C)noc3C)n2)c1 [Example 183-3]	< 5
CNCC(O)COc1cccc(-c2nc(NCC3CCN(C(=O)OC)CC3)c(C)c(-c3c(C)noc3C)n2)c1 (stereo not shown) [Example 184-1a]	< 5
CNC[C@@H](O)COc1ccc(Cl)c(-c2nc(-c3c(C)noc3C)c(C)c(N3CC(F)(F)C3)n2)c1 [Example 184-3]	< 5
CNCC(O)COc1cccc(-c2nc(NC3CCN(C4CC4)CC3)c(C)c(-c3c(C)noc3C)n2)c1 (stereo not shown) [Example 185-1a]	< 5
CNC[C@@H](O)COc1ccc(F)c(-c2nc(-c3c(C)noc3C)c(C)c(N3Cc4cc(Cl)cnc4C3)n2)c1 [Example 185-3]	< 5
CNCC(O)COc1cccc(-c2nc(NC3CCN(C(=O)OC)C3)c(C)c(-c3c(C)noc3C)n2)c1 (stereo not shown) [Example 186-1a]	< 5
CNC[C@@H](O)COc1ccc(Cl)c(-c2nc(-c3c(C)noc3C)c(C)c(N3C[C@H]4COC[C@H]4C3)n2)c1 [Example 186-3]	< 5
CNCC(O)COc1ccc(Cl)c(-c2nc(NC3CCN(C(=O)OC)CC3)c(Cl)c(-c3c(C)noc3C)n2)c1 (stereo not shown) [Example 187-1a]	< 5
CNC[C@@H](O)COc1ccc(Cl)c(-c2nc(-c3c(C)noc3C)c(C)c(N3CCOC3=O)n2)c1 [Example 187-3]	10 to 20
CNCC(O)COc1cccc(-c2nc(NC3CCN(CC(F)F)CC3)c(C)c(-c3c(C)noc3C)n2)c1 (stereo not shown) [Example 188-1a]	< 5
CNC[C@@H](O)COc1ccc(Cl)c(-c2nc(NC3CC(F)C3)c(C)c(-c3c(C)noc3C)n2)c1 (stereo partly shown) [Example 188-3]	< 5
CCOC(=O)N1CCC(Nc2nc(-c3cccc(OCC(O)CNC)c3)nc(-c3c(C)noc3C)c2C)CC1 (stereo not shown) [Example 189-1a]	< 5
CNC[C@@H](O)COc1ccc(Cl)c(-c2nc(NC3CC(F)(F)C3)c(C)c(-c3c(C)noc3C)n2)c1 [Example 189-3]	< 5
CCOC(=O)N1CCCC(Nc2nc(-c3cccc(OCC(O)CNC)c3)nc(-c3c(C)noc3C)c2C)C1 (stereo not shown) [Example 190-1a]	< 5
CNC[C@@H](O)COc1ccc(Cl)c(-c2nc(-c3c(C)noc3C)c(C)c(N3Cc4cncnc4C3)n2)c1 [Example 190-3]	< 5
CCOC(=O)N1CCC(CNc2nc(-c3cccc(OCC(O)CNC)c3)nc(-c3c(C)noc3C)c2C)CC1 (stereo not shown) [Example 191-1a]	< 5
CCO[C@@H]1CCC[C@H]1Nc1nc(-c2cc(OC[C@H](O)CNC)ccc2F)nc(-c2c(C)noc2C)c1C [Example 191-3]	< 5
CCS(=O)(=O)N1CCC(CNc2nc(-c3cccc(OCC(O)CNC)c3)nc(-c3c(C)noc3C)c2C)CC1 (stereo not shown) [Example 192-1a]	< 5
CNC[C@@H](O)COc1ccc(Cl)c(-c2nc(-c3c(C)noc3C)c(C)c(N3Cc4nc(C)sc4C3)n2)c1 [Example 192-3]	< 5
CNCC(O)COc1cccc(-c2nc(NCC3CCCN(CC(F)F)C3)c(C)c(-c3c(C)noc3C)n2)c1 (stereo not shown) [Example 193-1a]	< 5

The remaining lines, values ahead:

IC50 [µM]	Structure (SMILES)
< 5	CNC[C@@H](O)COc1ccc(Cl)c(-c2nc(-c3c(C)noc3C)c(C)c(N3Cc4ccncc4C3)n2)c1 [Example 159-3]
< 5	CNC[C@@H](O)COc1ccc(Cl)c(-c2nc(NC[C@H]3CCCN3C(=O)OC(C)C)c(C)c(-c3c(C)noc3C)n2)c1 [Example 160-3]
< 5	CNCC(O)COc1cccc(-c2nc(-c3c(C)noc3C)c(C)c(N3CCN(C(=O)OCC(F)F)CC3)n2)c1 (stereo not shown) [Example 161-1a]
< 5	CCOC(=O)N1CCOC[C@@H]1COc1nc(-c2cc(OC[C@H](O)CNC)ccc2Cl)nc(-c2c(C)noc2C)c1C [Example 161-3]
< 5	CNCC(O)COc1cccc(-c2nc(-c3c(C)noc3C)c(C)c(N3CC[C@H](C(=O)N(C)C)C3)n2)c1 (stereo partly shown) [Example 162-1a]
< 5	CNC[C@@H](O)COc1ccc(Cl)c(-c2nc(N[C@@H]3CO[C@@H](C)C3)c(C)c(-c3c(C)noc3C)n2)c1 [Example 162-3]
< 5	CNCC(O)COc1cccc(-c2nc(N[C@@H]3CC[C@H](O)C3)c(C)c(-c3c(C)noc3C)n2)c1 (stereo partly shown) [Example 163-1a]
< 5	CNCC(O)COc1cccc(-c2nc(-c3c(C)noc3C)c(C)c(N3C[C@@H](C)O[C@@H](C)C3)n2)c1 (stereo partly shown) [Example 164-1a]
< 5	CNC[C@@H](O)COc1ccc(F)c(-c2nc(-c3c(C)noc3C)c(C)c(N3Cc4cc(F)cnc4C3)n2)c1 [Example 164-3]
< 5	CNCC(O)COc1cccc(-c2nc(-c3c(C)noc3C)cc(N3CCN(n4c(C)nnc4C)CC3)n2)c1 (stereo not shown) [Example 165-1a]
< 5	CNCC(O)COc1cccc(-c2nc(-c3c(C)noc3C)cc(N3CCN(C4CCOCC4)CC3)n2)c1 (stereo not shown) [Example 166-1a]
< 5	CCS(=O)(=O)N1CCCC(CNc2nc(-c3cccc(OCC(O)CNC)c3)nc(-c3c(C)noc3C)c2C)C1 (stereo not shown) [Example 167-1a]
< 5	CNC[C@@H](O)COc1ccc(Cl)c(-c2nc(N[C@@H]3CCN(C4CC4)C[C@@H]3F)c(C)c(-c3c(C)noc3C)n2)c1 [Example 167-3]
< 5	CCS(=O)(=O)N1CCC(Nc2nc(-c3cccc(OCC(O)CNC)c3)nc(-c3c(C)noc3C)c2C)CC1 (stereo not shown) [Example 168-1a]
< 5	CNC[C@@H](O)COc1ccc(Cl)c(-c2nc(-c3c(C)noc3C)c(Cl)c(N3Cc4cccnc4C3)n2)c1 [Example 168-3]
< 5	CNC[C@H](O)COc1cccc(-c2nc(NC3CCN(C(=O)OC)CC3)c(C)c(-c3c(C)noc3C)n2)c1 [Example 169-1a]
< 5	CNC[C@@H](O)COc1ccc(Cl)c(-c2nc(N[C@H]3CCN(C(=O)OC)[C@@H](C)C3)c(C)c(-c3c(C)noc3C)n2)c1 [Example 169-3]
< 5	CNC[C@@H](O)COc1cccc(-c2nc(NC3CCN(C(=O)OC)CC3)c(C)c(-c3c(C)noc3C)n2)c1 [Example 170-1a]
< 5	CNC[C@@H](O)COc1ccc(Cl)c(-c2nc(N[C@H]3CCN(C4CC4)[C@@H](C)C3)c(C)c(-c3c(C)noc3C)n2)c1 [Example 170-3]
< 5	CNCC(O)COc1cccc(-c2nc(NCC3CN(C)CCO3)c(C)c(-c3c(C)noc3C)n2)c1 (stereo not shown) [Example 171-1a]
< 5	Cc1noc(C)c1-c1nc(-c2cc(OC[C@H](O)CN(C)C)ccc2Cl)nc(N[C@H]2CCN(C3CC3)[C@@H](C)C2)c1C [Example 171-3]
< 5	CCOC(=O)N1CCC(N(C)c2cc(-c3c(C)noc3C)nc(-c3cccc(OCC(O)CNC)c3)n2)CC1 (stereo not shown) [Example 172-1a]
< 5	CNC[C@@H](O)COc1ccc(Cl)c(-c2nc(N[C@H]3C[C@@H](C)O[C@@H](C)C3)c(C)c(-c3c(C)noc3C)n2)c1 [Example 172-3]
< 5	CNC[C@@H](O)COc1ccc(Cl)c(-c2nc(N[C@H]3C[C@@H](C)O[C@@H](C)C3)c(Cl)c(-c3c(C)noc3C)n2)c1 [Example 173-3]
